Data: US20230158176A1, “NEAR-INFRARED FLUORESCENT SMALL-MOLECULE PROBE, SYNTHESIS METHOD AND APPLICATION THEREOF” (Linyi University, priority 2021, published 2023)

Experiments:
[1] = Molecular spectrum test (absorption and emission spectra); assay type: physicochemical; conditions: for maximum emission wavelength: λex 740 nm
Protocol: A certain mass of the IR-780-F sample is weighed and dissolved in dimethyl sulfoxide (DMSO) to obtain a solving solution, and the quantitative solving solution is added to 2-[4-(2-hydroxyethyl)-1-piperazinyl]-ethanesulfonic acid (HEPES, also referred to as C8H18N2O4S) buffer solution to form a solution with a concentration of 10.0 micromoles per liter […] (containing 10% dimethyl sulfoxide) and an absorption spectrum of the IR-780-F sample is measured. Ultraviolet absorption spectrum is obtained by Agilent Ultraviolet-Vis spectrophotometer with a scanning wavelength range from 500 nanometers (nm) to 900 nm at a sweep rate of 1002 nanometers per minute (nm/min). Furthermore, addition quantitative solving solution is respectively added to methanol, acetonitrile, phosphate buffered saline (PBS buffer solution), HEPES buffer solution, bovine serum and adult serum to form a solution with a concentration of 10.0 μM (containing 10% dimethyl sulfoxide) to test an emission spectrum of the IR-780-F sample. Hitachi F-4600 […] is used to obtain FT-IR emission spectrum, of the scanning wavelength is from 750 nm to 900nm, an excitation wavelength λex is 740 nm, an excitation slit width is 5 nm, and an emission slit width is 5 nm.

[2] = In vitro photothermal efficiency under 808 nm laser radiation; assay type: physicochemical; conditions: for highest temperature of the solution: 2.0 W/cm^2, solutions 0.2-1.2 mg/mL in PBS
Protocol: To evaluate in vitro thermogenesis of IR-780 solution and IR-780-F solution, 10 millimoles per litter (mM) IR-780-F solution dissolved in the dimethyl sulfoxide is used, and the IR-780-F solution is respectively diluted to the concentrations of 0.2 milligrams per milliliters (mg/mL), 0.4 mg/mL, 0.8 mg/mL, and 1.2 mg/mL with the phosphate buffered saline and these IR-780-F solutions and the phosphate buffered saline are evaluated. The IR-780 solution is prepared as above.
Temperature changes of the IR-780-F solutions and the phosphate buffered saline and temperature changes of the IR-780 solutions and the phosphate buffered saline are respectively recorded by using an infrared thermal imaging camera (a model of FLIR-E6). The phosphate buffered saline as a control group, 0.2 mg/mL of the IR-780-F solution and 0.2 mg/mL of the IR-780 solution, 0.4 mg/mL of the IR-780-F solution and 0.4 mg/mL of the IR-780 solution, 0.8 mg/mL of the IR-780-F solution and 0.8 mg/mL of the IR-780 solution, 1.2 mg/mL of the IR-780-F solution and 1.2 mg/mL of the IR-780 solution are all exposed to 808 nm laser radiation with a power density of 2.0 Watt per square centimeter (W/cm^2) to be measured and recorded the temperature changes.

[3] = tested on: murine mammary carcinoma cells (4T1 cells); assay: In vitro evaluation of cytotoxicity by CCK-8; assay type: cell-based; conditions: 10 μM to 60 μM, incubated 1 h
Protocol: Respective toxicity of the IR-780-F solution and the IR-780 solution with concentrations from 10 μM to 60 μM on murine mammary carcinoma cells (also referred to as 4T1 cells) is measured by cell counting kit-8 (CCK-8). Incubated 4T1 cells are collected and centrifuged to prepare cell suspensions, and a cell concentration is adjusted to 8×10^4 cells per milliliter. The 4T1 cells are transferred to 96-well plates, and 100 microliters (μL) 4T1 cells are added to each well, so that a density of the cells to be tested is about 8000 cells per well, and the number of the 96-well plates for experiment is two. The two 96-well plates inoculated with the cells to be tested are placed in an incubator at 37° C. for 12 h. One plate is incubated with the IR-780-F solutions with a concentration gradient from 10 μM to 60 μM for 1 h; the other plate is incubated with the IR-780 solutions with a concentration gradient from 10 μM to 60 μM for 1 h. After the end of incubation, CCK-8 reagent (a volume of 10 μL, a concentration of 5 mg/mL, i.e. 0.5% CCK-8 reagent) is immediately added to the each well and the two 96-well plates continue to incubate for 40 min. Finally, absorptivity and intensity of the each well are tested by an enzyme calibration, and cell viability of the control group is taken as 100%, and the cell viability of the test groups are taken as the percentage of the control group.

[4] = tested on: 4T1 tumor-bearing nude mice; assay: In vivo NIR fluorescence imaging / distribution in tumor-bearing mice; parameters: species or system BALB/c Nude mice; conditions: 4 mg/kg via tail vein
Protocol: (§1) The incubated 4T1 cells are collected by centrifugation, rinsed three times with PBS buffer solution to prepare cell suspensions, which are used a cell counter to count cell number. The cell suspensions are respectively diluted to desired concentrations with the PBS buffer solution. The pretreated 4T1 cells (about 1×10^6 per 100 μL) are injected subcutaneously into right hind legs of BALB/c Nude mice and tumor model mice are obtained after about one week.
In order to determine an optimal time for in vivo photothermal treatment with the IR-780-F, tissue permeability and distribution of the IR-780-F in tumor-bearing mice are examined by means of a whole animal near infrared (NIR) imaging system. An injection of the IR-780-F (containing 12.4% dimethyl sulfoxide) is prepared with PBS buffer solution. When the tumors in the tumor-bearing mice grow to a certain volume, 4 milligrams per kilogram of the tumor-bearing mice (mg/kg) IR-780-F is injected into the tumor-bearing mice via tail vein. The anesthetized nude mice are placed into a in vivo imaging apparatus (also referred to as living imaging apparatus) and subjected to fluorescence imaging at 0 h, 2 h, 4 h, 8 h, 12 h, 24 h, 48 h, 72 h, 96 h and 120 h. […] The organs are placed in the living imaging apparatus to observe fluorescence distribution of each organ.

[5] = tested on: 4T1 tumor-bearing nude mice; assay: Photothermal efficiency at tumor location in vivo; parameters: species or system BALB/c Nude mice; conditions: IR-780-F+laser radiation group, intratumoral injection, laser 4 minutes
Protocol: as §1
The injection of the IR-780-F (containing 12.4% dimethyl sulfoxide) is prepared with PBS buffer solution for intratumoral injection. After 12 hours, the nude mice are anesthetized, imaged using a photothermal imager, and temperature changes are recorded. The tumor locations of the mice are irradiated with a laser for 4 minutes, and then the photothermal imaging is again performed on the corresponding tumor locations to record the corresponding temperature.

[6] = tested on: 4T1 tumor-bearing nude mice; assay: Photothermal treatment effect in tumor-bearing mice; assay type: in vivo, BALB/c Nude mice
Protocol: as §1
After successful tumor loading, mice with an average tumor diameter of about 10×10 mm are randomly divided into four groups (5 mice in each group): (1) control group: intratumoral injection of 0.1 mL of saline; (2) laser group: intratumoral injection of 0.1 mL of saline followed by a laser radiation (a wavelength of 808 nm, 2.0 W/cm^2, 4 min); (3) IR-780-F group: intratumoral injection of 0.1 mL (corresponding to 80 micrograms abbreviated μg) of the IR-780-F solution without the laser radiation; (4) IR-780-F+laser group: intratumoral injection of 80 μg of the IR-780-F solution followed by the laser radiation (a wavelength of 808 mn, 2.0 W/cm^2, 4 min). The mice are anesthetized after administration of the medicine, and the tumor locations of the mice are placed under the laser radiation. When the laser irradiated the tumor locations of the mice, the temperature of the tumor locations under the laser radiation are simultaneously recorded when measured by the thermal infrared imager.

Stoke shift value (difference between maximum emission wavelength and maximum absorption wavelength) [1] [nm] | maximum emission wavelength ([1]; in FBS) [nm] | maximum emission wavelength ([1]; in HAS) [nm] | maximum absorption wavelength ([1]; in HEPES, 10.0 μM, 10% dimethyl sulfoxide) [nm] | maximum emission wavelength ([1]; in HEPES) [nm] | maximum emission wavelength ([1]; in MeCN) [nm] | maximum emission wavelength ([1]; in MeOH) [nm] | highest temperature of the solution [2] [°C] | distribution of near-infrared fluorescence in vivo ([4]; imaging 0-120 h) | SMILES | photothermal conversion effect compared with IR-780 [2] | cell viability of the 4T1 cells [3] | fluorescence distribution in dissected organs and tumors ([4]; dissected five days later) | surface temperature of the tumor locations [5] [°C] | tumor size ([6]; IR-780-F group: 80 μg intratumoral without laser radiation, 12th day) [mm^3] | tumor growth ([6]; IR-780-F without laser, compared with laser alone and control PBS group, P>0.05) | mean tumor size ([6]; IR-780-F+laser group: 80 μg intratumoral, 808 nm, 2.0 W/cm^2, 4 min, 12th day) [mm^3] | tumor volumes of excised tumors ([6]; IR-780-F+laser radiation group, sacrificed at the 12th day) | tumor growth ([6]; IR-780-F+laser radiation, P<0.01)
38 | 820 | 818 | 773 | 804 | 816 | 814 | 69.3 | significant tumor targeting accumulation | CC1(C)C(/C=C/C2=C(Cl)C(=C/C=C3/N(CCC(F)(F)F)c4ccccc4C3(C)C)/CCC2)=[N+](CCC(F)(F)F)c2ccccc21 [IR-780-F] | better photothermal conversion effect than that of the IR-780 | decreases with the increase of the concentrations | mainly concentrated at the tumor location and there is weak fluorescence in the lungs | 52.9±0.2 | 559±49 | does not show a significant inhibition | 94±11 | significantly smaller than those in the other three groups | significantly inhibited
– | – | – | – | – | – | – | 69.3 | – | CCCN1/C(=C/C=C2\CCCC(/C=C/C3=[N+](CCC)c4ccccc4C3(C)C)=C2Cl)C(C)(C)c2ccccc21.[I-] [IR-780, reference compound] | – | decreases with the increase of the concentrations | – | – | – | – | – | – | –
